Patent publication US11702422B2, “Imidazopyridazines as modulators of IL-17” (Janssen Pharmaceutica NV, priority 2020, dated 2023)

Key:
[1] = target: IL-17A(FLAG-Tagged): IL-17RA(His-Tagged) (Homo sapiens, UniProt Q16552, K93Q); experiment: IL-17A(FLAG-Tagged): IL-17RA(His-Tagged) Binding Disruption Eu-HTRF Assay; settings: IL-17A/IL-17RA binding disruption, simple average if tested more than once
Procedure, shortened: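 IC50 comes from a one-site competition fit of the HTRF 665/620 nm ratio. Compound dilutions (2-fold, 22 points) were held 1 h rt with FLAG-tagged IL-17A dimer, then His-tagged IL-17RA plus Eu-cryptate anti-FLAG and D2 anti-His antibodies were added for 2 h rt.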

[2] = test system: IL-17A-induced G-CSF production in human normal keratinocyte (NHK); experiment: NHK Assay: IL-17A-induced G-CSF production in human normal keratinocytes; format: cell-based; settings: Homo sapiens, Keratinocyte, 24 h, adult normal human keratinocytes, IL-17A 5 ng/mL, simple average if tested more than once
Procedure, shortened: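 Titrated compound plus recombinant human IL-17A (pre-incubated 1 h, rt) were applied to adult human keratinocytes at 5 ng/mL cytokine, 0.2% DMSO. Cultures ran 24 h at 37° C, and supernatant G-CSF was measured by HTRF to derive IC50.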

UniProt Q16552, sequence (Q16552 with tags, fused parts or gaps K93Q): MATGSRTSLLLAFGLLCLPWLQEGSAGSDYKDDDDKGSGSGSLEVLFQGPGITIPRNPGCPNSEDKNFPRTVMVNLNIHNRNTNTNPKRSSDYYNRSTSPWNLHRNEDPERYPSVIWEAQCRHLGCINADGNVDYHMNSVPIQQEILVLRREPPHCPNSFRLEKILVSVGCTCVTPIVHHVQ

| SMILES | IC50 [1] [nM] | IC50 [2] [nM] |
| --- | --- | --- |
| CCOc1nonc1C(=O)N[C@H](c1cn2ncc([C@H](NC(=O)CC3CC(F)(F)C3)C3CC3)cc2n1)C1CCC(F)(F)CC1 [Example 391, N—((S)-(7-((R)-Cyclopropyl(2-(3,3-difluorocyclobutyl)acetamido)methyl)imidazo[1,2-b]pyridazin-2-yl)(4,4-difluorocyclohexyl)methyl)-4-ethoxy-1,2,5-oxadiazole-3-carboxamide] | 43 | 47 |
| O=C(CC1CC(F)(F)C1)N[C@@H](c1cnn2cc([C@@H](NC(=O)c3nocc3C3CC3)C3CCC(F)(F)CC3)nc2c1)C1CC1 [Example 403, 4-Cyclopropyl-N—((S)-(7-((R)-cyclopropyl(2-(3,3-difluorocyclobutyl)acetamido)methyl)imidazo[1,2-b]pyridazin-2-yl)(4,4-difluorocyclohexyl)methyl)isoxazole-3-carboxamide] | 63 | 170 |
| O=C(CC1CC(F)(F)C1)N[C@@H](c1cnn2cc([C@@H](NC(=O)c3nonc3CN3CC(F)C3)C3CCC(F)(F)CC3)nc2c1)C1CC1 [Example 407, N—((S)-(7-((R)-Cyclopropyl(2-(3,3-difluorocyclobutyl)acetamido)methyl)imidazo[1,2-b]pyridazin-2-yl)(4,4-difluorocyclohexyl)methyl)-4-((3-fluoroazetidin-1-yl)methyl)-1,2,5-oxadiazole-3-carboxamide] | 240 | 97 |
| COc1nonc1C(=O)N[C@H](c1cn2ncc([C@H](NC(=O)CC3CC(F)(F)C3)C3CC3)cc2n1)C1CCC(F)(F)CC1 [Example 409, N—((S)-(7-((R)-Cyclopropyl(2-(3,3-difluorocyclobutyl)acetamido)methyl)imidazo[1,2-b]pyridazin-2-yl)(4,4-difluorocyclohexyl)methyl)-4-methoxy-1,2,5-oxadiazole-3-carboxamide] | 85 | 140 |
| O=C(N[C@H](c1cn2ncc([C@H](NC(=O)C(F)(F)CC3CC3)C3CC3)cc2n1)C1CCC(F)(F)CC1)c1nonc1C1CC1 [Example 411, 4-Cyclopropyl-N—((S)-(7-((R)-cyclopropyl(3-cyclopropyl-2,2-difluoropropanamido)methyl)imidazo[1,2-b]pyridazin-2-yl)(4,4-difluorocyclohexyl)methyl)-1,2,5-oxadiazole-3-carboxamide] | 78 | 49 |
| O=C(CC1CC(F)(F)C1)N[C@@H](c1cnn2cc([C@@H](NC(=O)c3nonc3O)C3CCC(F)(F)CC3)nc2c1)C1CC1 [Example 412, N—((S)-(7-((R)-Cyclopropyl(2-(3,3-difluorocyclobutyl)acetamido)methyl)imidazo[1,2-b]pyridazin-2-yl)(4,4-difluorocyclohexyl)methyl)-4-hydroxy-1,2,5-oxadiazole-3-carboxamide] | > 50000 | > 20000 |
| O=C(CC1CC(F)(F)C1)N[C@@H](c1cnn2cc([C@@H](NC(=O)c3nonc3C(F)F)C3CCC(F)(F)CC3)nc2c1)C1CC1 [Example 413, N—((S)-(7-((R)-Cyclopropyl(2-(3,3-difluorocyclobutyl)acetamido)methyl)imidazo[1,2-b]pyridazin-2-yl)(4,4-difluorocyclohexyl)methyl)-4-(difluoromethyl)-1,2,5-oxadiazole-3-carboxamide] | 61 | 170 |
| O=C(CCC(F)(F)F)N[C@@H](c1cnn2cc([C@@H](NC(=O)c3cncc(C4CC4)c3)C3CCC(F)(F)CC3)nc2c1)C1CC1 [Example 414, 5-Cyclopropyl-N—((S)-(7-((R)-cyclopropyl(4,4,4-trifluorobutanamido)methyl)imidazo[1,2-b]pyridazin-2-yl)(4,4-difluorocyclohexyl)methyl)nicotinamide] | 57 | 730 |
| CC(C)c1cncc(C(=O)N[C@H](c2cn3ncc([C@H](NC(=O)CCC(F)(F)F)C4CC4)cc3n2)C2CCC(F)(F)CC2)c1 [Example 415, N—((S)-(7-((R)-Cyclopropyl(4,4,4-trifluorobutanamido)methyl)imidazo[1,2-b]pyridazin-2-yl)(4,4-difluorocyclohexyl)methyl)-5-isopropylnicotinamide] | 73 | 500 |
| O=C(CCC(F)(F)F)N[C@@H](c1cnn2cc([C@@H](NC(=O)c3cncc(C4CCC4)c3)C3CCC(F)(F)CC3)nc2c1)C1CC1 [Example 416, 5-Cyclobutyl-N—((S)-(7-((R)-cyclopropyl(4,4,4-trifluorobutanamido)methyl)imidazo[1,2-b]pyridazin-2-yl)(4,4-difluorocyclohexyl)methyl)nicotinamide] | 62 | 550 |
| O=C(CCC(F)(F)F)N[C@@H](c1cnn2cc([C@@H](NC(=O)c3cncc(OC(F)F)c3)C3CCC(F)(F)CC3)nc2c1)C1CC1 [Example 417, N—((S)-(7-((R)-Cyclopropyl(4,4,4-trifluorobutanamido)methyl)imidazo[1,2-b]pyridazin-2-yl)(4,4-difluorocyclohexyl)methyl)-5-(difluoromethoxy)nicotinamide] | 68 | 410 |
| N#Cc1cncc(C(=O)N[C@H](c2cn3ncc([C@H](NC(=O)CCC(F)(F)F)C4CC4)cc3n2)C2CCC(F)(F)CC2)c1 [Example 450, 5-Cyano-N—((S)-(7-((R)-cyclopropyl(4,4,4-trifluorobutanamido)methyl)imidazo[1,2-b]pyridazin-2-yl)(4,4-difluorocyclohexyl)methyl)nicotinamide] | 810 | 1700 |
| O=C(CCC(F)(F)F)N[C@@H](c1cnn2cc([C@@H](NC(=O)c3cncc(F)c3)C3CCC(F)(F)CC3)nc2c1)C1CC1 [Example 451, N—((S)-(7-((R)-Cyclopropyl(4,4,4-trifluorobutanamido)methyl)imidazo[1,2-b]pyridazin-2-yl)(4,4-difluorocyclohexyl)methyl)-5-fluoronicotinamide] | 120 | 830 |
| CCc1cncc(C(=O)N[C@H](c2cn3ncc([C@H](NC(=O)CCC(F)(F)F)C4CC4)cc3n2)C2CCC(F)(F)CC2)c1 [Example 452, N—((S)-(7-((R)-Cyclopropyl(4,4,4-trifluorobutanamido)methyl)imidazo[1,2-b]pyridazin-2-yl)(4,4-difluorocyclohexyl)methyl)-5-ethylnicotinamide] | 100 | 570 |

Further lines, with some results ahead:

| IC50 [1] [nM] | SMILES | IC50 [2] [nM] |
| --- | --- | --- |
| 94 | O=C(CC1CC(F)(F)C1)N[C@@H](c1cnn2cc([C@@H](NC(=O)c3nonc3C3(O)CCCC3)C3CCC(F)(F)CC3)nc2c1)C1CC1 [Example 393, N—((S)-(7-((R)-Cyclopropyl(2-(3,3-difluorocyclobutyl)acetamido)methyl)imidazo[1,2-b]pyridazin-2-yl)(4,4-difluorocyclohexyl)methyl)-4-(1-hydroxycyclopentyl)-1,2,5-oxadiazole-3-carboxamide] | 120 |
| 200 | CC(C)(O)Cc1nonc1C(=O)N[C@H](c1cn2ncc([C@H](NC(=O)CC3CC(F)(F)C3)C3CC3)cc2n1)C1CCC(F)(F)CC1 [Example 394, N—((S)-(7-((R)-Cyclopropyl(2-(3,3-difluorocyclobutyl)acetamido)methyl)imidazo[1,2-b]pyridazin-2-yl)(4,4-difluorocyclohexyl)methyl)-4-(2-hydroxy-2-methylpropyl)-1,2,5-oxadiazole-3-carboxamide] | 240 |
| 77 | CN(C)c1nonc1C(=O)N[C@H](c1cn2ncc([C@H](NC(=O)CC3CC(F)(F)C3)C3CC3)cc2n1)C1CCC(F)(F)CC1 [Example 406, N—((S)-(7-((R)-Cyclopropyl(2-(3,3-difluorocyclobutyl)acetamido)methyl)imidazo[1,2-b]pyridazin-2-yl)(4,4-difluorocyclohexyl)methyl)-4-(dimethylamino)-1,2,5-oxadiazole-3-carboxamide] | 290 |
| 54 | O=C(CC1CC(F)(F)C1)N[C@@H](c1cnn2cc([C@@H](NC(=O)c3nonc3N3CCOCC3)C3CCC(F)(F)CC3)nc2c1)C1CC1 [Example 408, N—((S)-(7-((R)-Cyclopropyl(2-(3,3-difluorocyclobutyl)acetamido)methyl)imidazo[1,2-b]pyridazin-2-yl)(4,4-difluorocyclohexyl)methyl)-4-morpholino-1,2,5-oxadiazole-3-carboxamide] | 370 |
| 120 | CC(C)(O)c1nonc1C(=O)N[C@H](c1cn2ncc([C@H](NC(=O)CC3CC(F)(F)C3)C3CC3)cc2n1)C1CCC(F)(F)CC1 [Example 410, N—((S)-(7-((R)-Cyclopropyl(2-(3,3-difluorocyclobutyl)acetamido)methyl)imidazo[1,2-b]pyridazin-2-yl)(4,4-difluorocyclohexyl)methyl)-4-(2-hydroxypropan-2-yl)-1,2,5-oxadiazole-3-carboxamide] | 230 |
| 4600 | Cc1cc(C(=O)N[C@H](c2cn3ncc([C@H](NC(=O)CCC(F)(F)F)C4CC4)cc3n2)C2CCC(F)(F)CC2)cnn1 [Example 418, N—((S)-(7-((R)-Cyclopropyl(4,4,4-trifluorobutanamido)methyl)imidazo[1,2-b]pyridazin-2-yl)(4,4-difluorocyclohexyl)methyl)-6-methylpyridazine-4-carboxamide] | > 20000 |
| 1300 | O=C(CCC(F)(F)F)N[C@@H](c1cnn2cc([C@@H](NC(=O)c3ncccc3OCC(F)(F)F)C3CCC(F)(F)CC3)nc2c1)C1CC1 [Example 419, N—((S)-(7-((R)-Cyclopropyl(4,4,4-trifluorobutanamido)methyl)imidazo[1,2-b]pyridazin-2-yl)(4,4-difluorocyclohexyl)methyl)-3-(2,2,2-trifluoroethoxy)picolinamide] | > 20000 |
